# US5210193A, “Piperazine derivatives” (American Cyanamid Company, priority 1990, dated 1993)
# What was measured:
# Klebsiella pneumoniae AD [1] = assay: in vivo antibacterial activity, survival of infected mice (Table II); design: species or system Charles River CD-1 mice; conditions: subcutaneous
# Experimental: Charles River CD-1 mice were infected with either Klebsiella pneumoniae AD or Staphylococcus aureus Smith. A single subcutaneous dose of the test compound was administered 1/2 hour after infection. […] The results appear in Tables II and III, wherein the representative test compounds are identified by the number of their hereinafter described examples.
# [2] = system: Pseudomonas aeruginosa VGH 84-4; assay: in vitro antibacterial MIC, agar plate dilution; assay type: cell-based; conditions: Pseudomonas aeruginosa, VGH844, 18 h, 35° C., read-out: MIC
# Experimental: (§1) The in vitro antimicrobial spectrum of the compounds of ths invention were determined by the agar plate dilution method with Mueller-Hinton agar and an inoculum of each test organism of approximately 10^4 colony forming units delivered by the Steers replicating device. The minimal inhibitory concentration (MIC) in mcg/ml is defined as the lowest concentration of test compound that inhibited visible growth after 18 hours incubation at 35° C. Results are given in Table I, with the test compounds identified by the number of their hereinafter described examples.
# [3] = system: Enterobacter cloacae VGH 84-37; assay: in vitro antibacterial MIC, agar plate dilution; assay type: cell-based; conditions: Enterobacter cloacae, VGH8437, 18 h, 35° C., read-out: MIC
# Experimental: as §1
# [4] = system: Proteus rettgeri CMC 84-41; assay: in vitro antibacterial MIC, agar plate dilution; assay type: cell-based; conditions: Providencia rettgeri, CMC8441, 18 h, 35° C., read-out: MIC
# Experimental: as §1
# [5] = system: Escherichia coli CMC 84-11; assay: in vitro antibacterial MIC, agar plate dilution; assay type: cell-based; conditions: Escherichia coli, CMC8411, 18 h, 35° C., read-out: MIC
# Experimental: as §1
# [6] = system: Enterobacter aerogenes VGH 84-36; assay: in vitro antibacterial MIC, agar plate dilution; assay type: cell-based; conditions: Klebsiella aerogenes, VGH8436, 18 hours, 35° C., read-out: MIC
# Experimental: as §1
# [7] = system: Escherichia coli ATCC 25922; assay: in vitro antibacterial MIC, agar plate dilution; assay type: cell-based; conditions: Escherichia coli, ATCC25922, 18 h, 35° C., read-out: MIC
# Experimental: as §1
# [8] = system: Klebsiella pneumoniae MOR 84-4; assay: in vitro antibacterial MIC, agar plate dilution; assay type: cell-based; conditions: Klebsiella pneumoniae, MOR844, 18 h, 35° C., read-out: MIC
# Experimental: as §1
# [9] = system: Staphylococcus aureus Smith; assay: in vitro antibacterial MIC, agar plate dilution; assay type: cell-based; conditions: Staphylococcus aureus, 18 h, 35° C., read-out: MIC
# Experimental: as §1
# [10] = system: Staphylococcus aureus ATCC 25913; assay: in vitro antibacterial MIC, agar plate dilution; assay type: cell-based; conditions: ATCC25913, 18 hours, 35° C.
# Experimental: as §1
# Klebsiella pneumoniae AD [11] = assay: in vitro antibacterial MIC, agar plate dilution; assay type: cell-based; conditions: Klebsiella pneumoniae, 18 h, 35° C., read-out: MIC
# Experimental: as §1
# [12] = system: Morganella morganii VGH 84-11; assay: in vitro antibacterial MIC, agar plate dilution; assay type: cell-based; conditions: VGH8411, 18 hours, 35° C., read-out: MIC
# Experimental: as §1
# [13] = system: Streptococcus faecalis ATTC 29212; assay: in vitro antibacterial MIC, agar plate dilution; assay type: cell-based; conditions: Enterococcus faecalis, ATTC29212, 18 hours, 35° C., read-out: MIC
# Experimental: as §1
Structure (SMILES),Survival Ratio 7 Days After Infection (Klebsiella pneumoniae AD [1]; 0.25 mg/kg single dose),Survival Ratio 7 Days After Infection (Klebsiella pneumoniae AD [1]; 1 mg/kg single dose),Survival Ratio 7 Days After Infection (Klebsiella pneumoniae AD [1]; 4 mg/kg single dose),Survival Ratio 7 Days After Infection (Klebsiella pneumoniae AD [1]; 16 mg/kg single dose),Survival Ratio 7 Days After Infection (Klebsiella pneumoniae AD [1]; 64 mg/kg single dose),MIC [2] [µg/mL],MIC [3] [µg/mL],MIC [4] [µg/mL],MIC [5] [µg/mL],MIC [6] [µg/mL],MIC [7] [µg/mL],MIC [8] [µg/mL],MIC [9] [µg/mL],MIC [10] [µg/mL],MIC (Klebsiella pneumoniae AD [11]) [µg/mL],MIC [12] [µg/mL],Survival Ratio 7 Days After Infection (Klebsiella pneumoniae AD [1]; 0.5 mg/kg single dose),Survival Ratio 7 Days After Infection (Klebsiella pneumoniae AD [1]; 2 mg/kg single dose),Survival Ratio 7 Days After Infection (Klebsiella pneumoniae AD [1]; 8 mg/kg single dose),MIC [13] [µg/mL]
"CN(C)CC1CNCCN1 (stereo not drawn) [Example 1, N,N-Dimethyl-2-piperazinemethanamine]",0/5,0/5,1/5,5/5,–,–,–,–,–,–,–,–,–,–,–,–,–,–,–,–
"CCn1cc(C(=O)O)c(=O)c2cc(F)c(N3CCNC(CN4CCN(C)CC4)C3)cc21 (stereo not drawn) [Example 4, 1-Ethyl-6-fluoro 1,4-dihydro-7-[3-[(4-methyl-1-piperazinyl)methyl]-1-piperazinyl]-4-oxo-3-quinolinecarboxylic acid]",0/5,0/5,4/5,5/5,5/5,64,4,32,8,16,8,16,8,64,8,4,–,–,–,–
"CCn1cc(C(=O)O)c(=O)c2cc(F)c(N3CCNC(CO)C3)cc21.Cl (stereo not drawn) [Example 5, 1-Ethyl-6-fluoro-1,4-dihydro-7[3-(hydroxymethyl)-1-piperazinyl]-4-oxo-3-quinolinecarboxylic acid, hydrochloride]",0/5,0/5,0/5,0/5,5/5,8,1,1,1,16,2,2,8,32,0.5,0.5,–,–,–,–
"CCn1cc(C(=O)O)c(=O)c2cc(F)c(N3CCNC(c4sccc4C)C3)cc21 (stereo not drawn) [Example 16, 1-Ethyl-6-fluoro-1,4-dihydro-7-[3-(3-methyl-2-thienyl)-1-piperazinyl]-4-oxo-3-quinolinecarboxylic acid]",0/5,0/5,1/5,1/5,–,> 256,8,8,4,8,8,8,0.5,1,4,4,–,–,–,–
"Clc1ccc2oc(C3CNCCN3)cc2c1 (stereo not drawn) [Example 17, 2-(5-Chloro-2-benzofuranyl)piperazine]",0/5,0/5,1/5,5/5,–,–,–,–,–,–,–,–,–,–,–,–,0/5,0/5,5/5,–
"CCn1cc(C(=O)O)c(=O)c2cc(F)c(N3CCNC(c4sc5ccc(Cl)cc5c4C)C3)cc21 (stereo not drawn) [Example 20, 7-[3-(5-Chloro-3-methylbenzo[b]thien-2-yl)-1-piperazinyl]-1-ethyl-6-fluoro-1,4-dihydro-4-oxo-3-quinolinecarboxylic acid]",–,–,–,–,–,> 256,> 256,> 256,> 256,> 256,> 256,> 256,> 256,> 256,> 256,> 256,–,–,–,> 256
CCn1cc(C(=O)O)c(=O)c2cc(F)c(N3CCNC(CF)C3)cc21 (stereo not drawn) [Example 24],–,–,–,–,–,2,≤ 0.12,≤ 0.12,≤ 0.12,≤ 0.12,≤ 0.12,≤ 0.12,≤ 0.12,≤ 0.12,≤ 0.12,≤ 0.12,–,–,–,2
"CCn1cc(C(=O)O)c(=O)c2cc(F)c(N3CCN(C)C(CF)C3)cc21 (stereo not drawn) [Example 25, 1-Ethyl-6-fluoro-7-[3-(fluoromethyl)-4-methyl-1-piperazinyl]-1,4-dihydro-4-oxo-3-quinolinecarboxylic acid]",–,–,–,–,–,2,1,1,0.5,2,0.25,1,0.5,0.5,0.5,1,–,–,–,8
"CCn1cc(C(=O)O)c(=O)c2cc(F)c(N3CCNC(c4ccc(C)o4)C3)cc21 (stereo not drawn) [Example 42, 1-Ethyl-6-fluoro-1,4-dihydro-7-[3-(5-methyl-2-furanyl)-1-piperazinyl]-4-oxo-3-quinolinecarboxylic acid]",–,–,–,–,–,4,0.25,0.25,≤ 0.12,0.5,0.25,0.25,≤ 0.12,≤ 0.12,≤ 0.12,0.25,–,–,–,–
"CCn1cc(C(=O)O)c(=O)c2cc(F)c(N3CCNC(c4ccn(S(=O)(=O)c5ccccc5)c4)C3)cc21 (stereo not drawn) [Example 44, 1-Ethyl-6-fluoro-1,4-dihydro-4-oxo-7-[3-[1-(phenylsulfonyl)-1H-pyrrol-3-yl]-1-piperazinyl]-3-quinolinecarboxylic acid]",–,–,–,–,–,> 256,4,4,4,16,2,8,0.25,0.5,4,4,–,–,–,4
"CCn1cc(C(=O)O)c(=O)c2cc(F)c(N3CCNC(c4cc5ccccc5o4)C3)cc21 (stereo not drawn) [Example 46, 7-[3-(2-Benzofuranyl)-1-piperazinyl]-1-ethyl-6-fluoro-1,4-dihydro-4-oxo-3-quinolinecarboxylic acid]",–,–,–,–,–,8,0.5,0.5,0.25,1,0.25,1,≤ 0.12,≤ 0.12,0.5,0.5,–,–,–,1
